Measured values: the NIST ThermoML archive (doi:10.1016/j.jct.2016.08.001)
± gives the expanded uncertainty stated by the source.

How the values were obtained:
[1] = 100 kPa, Liquid; for speed of sound: Frequency=3 MHz, Sing-around technique in a fixed-path interferometer; for mass density: Vibrating tube method
[2] = refractive index (Na D-line) (dimensionless); details: 100 kPa, Liquid, Standard Abbe refractometry
[3] = xn = mol fraction of the nth substance listed; details: 100 kPa, Liquid, x1 = 1; for speed of sound: Frequency=3 MHz, Sing-around technique in a fixed-path interferometer; for mass density: Vibrating tube method
[4] = refractive index (Na D-line) (dimensionless); xn = mol fraction of the nth substance listed; details: 100 kPa, Liquid, Standard Abbe refractometry, x1 = 1

Compound | speed of sound ([1]; 298.15 K) | mass density ([1]; 298.15 K) | speed of sound ([1]; 303.15 K) | mass density ([1]; 303.15 K) | speed of sound ([1]; 308.15 K) | mass density ([1]; 308.15 K) | speed of sound ([1]; 313.15 K) | mass density ([1]; 313.15 K) | speed of sound ([1]; 318.15 K) | mass density ([1]; 318.15 K) | speed of sound ([1]; 323.15 K) | mass density ([1]; 323.15 K) | refractive index ([2]; 298.15 K) | refractive index ([2]; 303.15 K) | refractive index ([2]; 308.15 K) | refractive index ([2]; 313.15 K) | refractive index ([2]; 318.15 K) | refractive index ([2]; 323.15 K) | speed of sound ([3]; 298.15 K) | mass density ([3]; 298.15 K) | also measured
Nc1ccccc1 [aniline] | 1636.8 ± 1.5 m/s | 1017.1 ± 1 kg/m3 | 1617.5 ± 1.5 m/s | 1012.7 ± 1 kg/m3 | 1598.3 ± 1.5 m/s | 1008.4 ± 1 kg/m3 | 1579.1 ± 1.5 m/s | 1004.1 ± 1 kg/m3 | 1560 ± 1.5 m/s | 999.7 ± 1 kg/m3 | 1540.9 ± 1.5 m/s | 995.4 ± 1 kg/m3 | 1.5826 ± 0.0016 | 1.5793 ± 0.0016 | 1.576 ± 0.0016 | 1.5727 ± 0.0016 | 1.5694 ± 0.0016 | 1.5661 ± 0.0016 | – | – | –
O=Cc1ccccc1 [benzaldehyde] | 1457.3 ± 1.6 m/s | 1041 ± 1 kg/m3 | 1438.9 ± 1.6 m/s | 1036.5 ± 1 kg/m3 | 1420.6 ± 1.6 m/s | 1032 ± 1 kg/m3 | 1402.4 ± 1.6 m/s | 1027.5 ± 1 kg/m3 | 1384.4 ± 1.6 m/s | 1023 ± 1 kg/m3 | 1366.4 ± 1.6 m/s | 1018.4 ± 1 kg/m3 | 1.541 ± 0.0016 | 1.5383 ± 0.0016 | 1.5357 ± 0.0016 | 1.5332 ± 0.0016 | 1.5307 ± 0.0016 | 1.5282 ± 0.0016 | – | – | –
N#Cc1ccccc1 [benzonitrile] | 1415.6 ± 1.5 m/s | 1000.6 ± 1 kg/m3 | 1398.1 ± 1.5 m/s | 995.9 ± 1 kg/m3 | 1380.8 ± 1.5 m/s | 991.4 ± 1 kg/m3 | 1363.6 ± 1.5 m/s | 986.9 ± 1 kg/m3 | 1346.5 ± 1.5 m/s | 982.5 ± 1 kg/m3 | 1329.5 ± 1.5 m/s | 977.9 ± 1 kg/m3 | 1.526 ± 0.0016 | 1.5235 ± 0.0016 | 1.5209 ± 0.0016 | 1.5184 ± 0.0016 | 1.5158 ± 0.0016 | 1.5133 ± 0.0016 | – | – | –
CCOC(=O)OCC [diethyl carbonate] | 1177.5 ± 1.6 m/s | 969.1 ± 1 kg/m3 | 1156.9 ± 1.6 m/s | 963.5 ± 1 kg/m3 | 1136.6 ± 1.5 m/s | 957.8 ± 1 kg/m3 | 1116.5 ± 1.5 m/s | 952.1 ± 1 kg/m3 | 1096.5 ± 1.5 m/s | 946.4 ± 1 kg/m3 | 1076.7 ± 1.5 m/s | 940.7 ± 1 kg/m3 | 1.3825 ± 0.0016 | 1.3802 ± 0.0016 | 1.3779 ± 0.0016 | 1.3756 ± 0.0016 | 1.3733 ± 0.0016 | 1.371 ± 0.0016 | – | – | –
CCOC(=O)OCC [diethyl carbonate] + N#Cc1ccccc1 | – | – | – | – | – | – | – | – | – | – | – | – | – | – | – | – | – | – | 1177.5 ± 1.6 m/s | 969.1 ± 1 kg/m3 | speed of sound ([3]; 303.15 K): 1156.9 ± 1.6 m/s; mass density ([3]; 303.15 K): 963.5 ± 1 kg/m3; speed of sound ([3]; 308.15 K): 1136.6 ± 1.5 m/s; mass density ([3]; 308.15 K): 957.8 ± 1 kg/m3; speed of sound ([3]; 313.15 K): 1116.5 ± 1.5 m/s; mass density ([3]; 313.15 K): 952.1 ± 1 kg/m3; speed of sound ([3]; 318.15 K): 1096.5 ± 1.5 m/s; mass density ([3]; 318.15 K): 946.4 ± 1 kg/m3; speed of sound ([3]; 323.15 K): 1076.7 ± 1.5 m/s; mass density ([3]; 323.15 K): 940.7 ± 1 kg/m3; refractive index ([4]; 298.15 K): 1.3825 ± 0.0016; refractive index ([4]; 303.15 K): 1.3802 ± 0.0016; refractive index ([4]; 308.15 K): 1.3779 ± 0.0016; refractive index ([4]; 313.15 K): 1.3756 ± 0.0016; refractive index ([4]; 318.15 K): 1.3733 ± 0.0016; refractive index ([4]; 323.15 K): 1.371 ± 0.0016
CCOC(=O)OCC [diethyl carbonate] + Nc1ccccc1 | – | – | – | – | – | – | – | – | – | – | – | – | – | – | – | – | – | – | 1177.5 ± 1.6 m/s | 969.1 ± 1 kg/m3 | speed of sound ([3]; 303.15 K): 1156.9 ± 1.6 m/s; mass density ([3]; 303.15 K): 963.5 ± 1 kg/m3; speed of sound ([3]; 308.15 K): 1136.6 ± 1.5 m/s; mass density ([3]; 308.15 K): 957.8 ± 1 kg/m3; speed of sound ([3]; 313.15 K): 1116.5 ± 1.5 m/s; mass density ([3]; 313.15 K): 952.1 ± 1 kg/m3; speed of sound ([3]; 318.15 K): 1096.5 ± 1.5 m/s; mass density ([3]; 318.15 K): 946.4 ± 1 kg/m3; speed of sound ([3]; 323.15 K): 1076.7 ± 1.5 m/s; mass density ([3]; 323.15 K): 940.7 ± 1 kg/m3; refractive index ([4]; 298.15 K): 1.3825 ± 0.0016; refractive index ([4]; 303.15 K): 1.3802 ± 0.0016; refractive index ([4]; 308.15 K): 1.3779 ± 0.0016; refractive index ([4]; 313.15 K): 1.3756 ± 0.0016; refractive index ([4]; 318.15 K): 1.3733 ± 0.0016; refractive index ([4]; 323.15 K): 1.371 ± 0.0016
CCOC(=O)OCC [diethyl carbonate] + O=Cc1ccccc1 | – | – | – | – | – | – | – | – | – | – | – | – | – | – | – | – | – | – | 1177.5 ± 1.6 m/s | 969.1 ± 1 kg/m3 | speed of sound ([3]; 303.15 K): 1156.9 ± 1.6 m/s; mass density ([3]; 303.15 K): 963.5 ± 1 kg/m3; speed of sound ([3]; 308.15 K): 1136.6 ± 1.5 m/s; mass density ([3]; 308.15 K): 957.8 ± 1 kg/m3; speed of sound ([3]; 313.15 K): 1116.5 ± 1.5 m/s; mass density ([3]; 313.15 K): 952.1 ± 1 kg/m3; speed of sound ([3]; 318.15 K): 1096.5 ± 1.5 m/s; mass density ([3]; 318.15 K): 946.4 ± 1 kg/m3; speed of sound ([3]; 323.15 K): 1076.7 ± 1.5 m/s; mass density ([3]; 323.15 K): 940.7 ± 1 kg/m3; refractive index ([4]; 298.15 K): 1.3825 ± 0.0016; refractive index ([4]; 303.15 K): 1.3802 ± 0.0016; refractive index ([4]; 308.15 K): 1.3779 ± 0.0016; refractive index ([4]; 313.15 K): 1.3756 ± 0.0016; refractive index ([4]; 318.15 K): 1.3733 ± 0.0016; refractive index ([4]; 323.15 K): 1.371 ± 0.0016
